Source: ChEMBL document CHEMBL4811258, “Potent Antimalarials with Development Potential Identified by Structure-Guided Computational Optimization of a Pyrrole-Based Dihydroorotate Dehydrogenase Inhibitor Series” (J Med Chem, 2021)
pEC50, pIC50: −log10 of the molar value. Calls of active or inactive are those of the source. The calls are words filed in the database; no cut-off is given here.

Assays:
[1] = Lipophilicity, logD of compound at pH 7.4; format: physicochemical; details: buffer
[2] = Inhibition of Plasmodium vivax DHODH expressed in Escherichia coli BL21-DE3 using L-dihydroorotate as substrate by steady-state DCIP method
[3] = Inhibition of Plasmodium falciparum DHODH expressed in Escherichia coli BL21-DE3 using L-dihydroorotate as substrate by steady-state DCIP method
[4] = test system: Plasmodium falciparum; experiment: microbe, parasite or virus in culture; details: 3D7, 72 h
[5] = biological target: Dihydroorotate dehydrogenase (quinone), mitochondrial (Homo sapiens, UniProt Q02127); format: ADME
Dihydroorotate dehydrogenase (quinone), mitochondrial (Homo sapiens, UniProt Q02127), sequence (Q02127 whole entry): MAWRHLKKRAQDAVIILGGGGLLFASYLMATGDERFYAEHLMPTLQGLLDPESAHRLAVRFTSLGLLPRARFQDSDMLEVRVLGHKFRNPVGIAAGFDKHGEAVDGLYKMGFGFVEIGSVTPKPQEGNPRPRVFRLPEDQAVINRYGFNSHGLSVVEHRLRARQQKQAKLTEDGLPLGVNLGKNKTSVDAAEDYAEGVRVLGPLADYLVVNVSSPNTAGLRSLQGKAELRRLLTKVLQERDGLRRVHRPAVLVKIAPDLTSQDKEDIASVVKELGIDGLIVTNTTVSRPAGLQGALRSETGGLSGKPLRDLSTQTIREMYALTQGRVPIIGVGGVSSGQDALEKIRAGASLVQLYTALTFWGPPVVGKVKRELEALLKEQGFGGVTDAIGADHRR

[6] = Oral bioavailability in mouse at 19 mg/kg; format: ADME, organism-based; details: in vivo
[7] = test system: Plasmodium falciparum
[8] = biological target: Cytochrome P450 3A4 (Homo sapiens, UniProt P08684)
Cytochrome P450 3A4, sequence (P08684 whole entry): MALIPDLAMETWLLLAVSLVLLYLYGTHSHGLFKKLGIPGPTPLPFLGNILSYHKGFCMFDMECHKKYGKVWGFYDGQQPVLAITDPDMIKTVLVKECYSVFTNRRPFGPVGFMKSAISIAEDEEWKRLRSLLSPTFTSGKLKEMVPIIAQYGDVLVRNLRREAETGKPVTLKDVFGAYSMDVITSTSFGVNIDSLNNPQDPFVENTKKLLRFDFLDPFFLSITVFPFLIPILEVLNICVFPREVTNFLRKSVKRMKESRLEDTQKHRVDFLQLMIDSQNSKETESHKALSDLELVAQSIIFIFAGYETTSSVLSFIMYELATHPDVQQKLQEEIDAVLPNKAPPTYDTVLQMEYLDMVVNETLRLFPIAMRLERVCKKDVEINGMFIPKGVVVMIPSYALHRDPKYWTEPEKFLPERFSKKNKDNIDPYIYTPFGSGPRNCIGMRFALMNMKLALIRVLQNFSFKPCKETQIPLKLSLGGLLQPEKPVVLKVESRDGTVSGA

[9] = biological target: Dihydroorotate dehydrogenase (quinone), mitochondrial (Rattus norvegicus, UniProt Q63707); experiment: Inhibition of rat DHODH up to 100 uM
Dihydroorotate dehydrogenase (quinone), mitochondrial (Rattus norvegicus, UniProt Q63707), sequence (Q63707 whole entry): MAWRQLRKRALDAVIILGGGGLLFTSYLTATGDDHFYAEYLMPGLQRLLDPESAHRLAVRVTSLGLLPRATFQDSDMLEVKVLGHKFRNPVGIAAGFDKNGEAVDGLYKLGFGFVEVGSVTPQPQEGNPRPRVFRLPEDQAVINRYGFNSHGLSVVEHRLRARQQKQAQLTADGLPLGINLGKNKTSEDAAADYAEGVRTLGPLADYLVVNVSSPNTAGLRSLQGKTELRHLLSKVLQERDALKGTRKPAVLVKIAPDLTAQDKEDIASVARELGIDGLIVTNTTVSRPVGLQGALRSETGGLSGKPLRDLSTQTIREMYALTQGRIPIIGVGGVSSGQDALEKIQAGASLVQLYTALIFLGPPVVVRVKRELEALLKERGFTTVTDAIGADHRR

[10] = test system: HepG2; experiment: Cytotoxicity against human HepG2 cells; format: cell-based
[11] = test system: L1210; experiment: Cytotoxicity against mouse L1210 cells; format: cell-based
[12] = Mutagenicity in Salmonella typhimurium by Ames test; format: toxicity; details: salmonella enterica subsp. enterica serovar typhimurium
[13] = Inhibition of dog DHODH up to 100 uM; set-up: species or system Canis lupus familiaris
[14] = biological target: Dihydroorotate dehydrogenase (quinone), mitochondrial (Mus musculus, UniProt O35435); experiment: Inhibition of mouse DHODH up to 100 uM
Dihydroorotate dehydrogenase (quinone), mitochondrial (Mus musculus, UniProt O35435), sequence (O35435 whole entry): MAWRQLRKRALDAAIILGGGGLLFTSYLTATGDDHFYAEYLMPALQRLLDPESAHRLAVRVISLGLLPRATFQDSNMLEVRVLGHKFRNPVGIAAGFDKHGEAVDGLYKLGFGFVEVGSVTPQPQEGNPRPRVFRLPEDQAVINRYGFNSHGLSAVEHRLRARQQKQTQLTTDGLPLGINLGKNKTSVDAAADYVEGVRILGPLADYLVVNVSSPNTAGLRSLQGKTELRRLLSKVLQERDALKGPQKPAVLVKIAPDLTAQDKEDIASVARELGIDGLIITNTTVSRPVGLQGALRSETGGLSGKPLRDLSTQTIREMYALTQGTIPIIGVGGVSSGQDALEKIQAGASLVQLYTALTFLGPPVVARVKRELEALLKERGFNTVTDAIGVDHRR

[15] = test system: Plasmodium falciparum; experiment: Antimalarial activity against Plasmodium falciparum 3D70087/N9 infected in orally dosed NOD-SCID IL2Rgamma null mouse assessed as parasitemia level in human red blood cells at 10 to 100 mg/kg, po administered days after 1 day post infection twice daily for 6 days measured on day 7 by flow cytometry; format: functional, organism-based; details: dose 10-100 mg/kg

Row | Structure (SMILES) | pIC50 [2] | pIC50 [3] | pEC50 [4] | pIC50 [5] | further results
1 | Cc1c(Cc2ccc(F)c3ccncc23)c[nH]c1C(=O)NC1CC1 | 8.40 | 8.21 | 9.04 | < 4.00 | logD [1]: < 3.4
2 | Cc1c(Cc2ccc(F)c3ccncc23)c[nH]c1C(=O)N1CC(F)(F)C1 | 8.19 | 7.96 | 8.47 | < 4.00 | logD [1]: < 3.4
3 | Cc1c(Cc2cccc3ccncc23)c[nH]c1C(=O)N1CC(F)(F)C1 | 8.11 | 7.80 | 8.42 | < 4.00 | logD [1]: < 3.4
4 | COc1ccc(Cc2c[nH]c(C(=O)NC3CC3)c2C)c2cnccc12 | 7.68 | 7.64 | 8.77 | < 4.30 | logD [1]: < 3.4
5 | Cc1c(Cc2cccc3ccncc23)c[nH]c1C(=O)NC1CC1 | 7.80 | 7.96 | 8.66 | < 4.00 | logD [1]: < 3.4
6 | Cc1c(Cc2cccc3ccncc23)c[nH]c1C(=O)NCC(F)(F)F | 7.77 | 7.46 | 8.02 | < 4.00 | logD [1]: < 3.4
7 | Cc1cc(C(C)NC(=O)c2[nH]cc(C(C)c3ccc(C(F)(F)F)nc3)c2C)no1 (racemic) | 7.13 | 7.10 | 8.52 | < 4.00 | –
8 | Cc1cc(C(C)NC(=O)c2[nH]cc(Cc3ccc(F)c4ccncc34)c2C)no1 (racemic) | 7.32 | 7.44 | 8.66 | < 4.00 | –
9 | Cc1c(Cc2ccc(C(F)(F)F)nc2)c[nH]c1C(=O)NC(C)c1cc(Br)no1 (racemic) | 7.70 | 7.15 | 6.92 | < 4.00 | –
10 | Cc1c(Cc2ccc(C(F)(F)F)cc2)c[nH]c1C(=O)NC(C)c1cc(Br)no1 (racemic) | 7.41 | 6.42 | 6.59 | < 4.00 | –
11 | Cc1cc(C(C)NC(=O)c2[nH]cc(Cc3cccc4ccncc34)c2C)no1 (racemic) | 7.68 | 7.52 | 8.43 | < 4.00 | –
12 | Cc1nc(C(C)NC(=O)c2[nH]cc(Cc3ccc(C(F)(F)F)nc3)c2C)no1 (racemic) | 7.00 | 6.43 | 6.72 | < 4.00 | –
13 | Cc1c(Cc2ccc(C(F)(F)F)cc2Br)c[nH]c1C(=O)NC(C)c1nc[nH]n1 (racemic) | 6.59 | 6.02 | 6.00 | < 4.00 | –
14 | COC(c1ccc(C(F)(F)F)nc1)c1c[nH]c(C(=O)NC(C)c2cc(C)on2)c1C (racemic) | 7.00 | 6.82 | 7.40 | < 4.00 | –
15 | Cc1c(Cc2ccc(C(F)(F)F)nc2F)c[nH]c1C(=O)NC(C)c1nc[nH]n1 (racemic) | 6.14 | 6.00 | 6.24 | < 4.00 | –
16 | Cc1nc(C(C)NC(=O)c2[nH]cc(Cc3ccc(C(F)(F)F)nc3)c2C)n[nH]1 (racemic) | 6.49 | 6.17 | 6.42 | < 4.00 | –
17 | Cc1cc(C(C)NC(=O)c2[nH]cc(C(O)c3ccc(C(F)(F)F)nc3)c2C)no1 (racemic) | 6.89 | 6.74 | 7.66 | < 4.00 | –
18 | Cc1cc(C(C)NC(=O)c2[nH]cc(C(C#N)c3ccc(C(F)(F)F)nc3)c2C)no1 (racemic) | 6.39 | 6.57 | 7.68 | < 4.00 | –
19 | Cc1nc(C(C)NC(=O)c2[nH]cc(Cc3ccc(C(F)(F)F)nc3)c2C)c[nH]1 (racemic) | 6.30 | 4.89 | 6.42 | < 4.00 | –
20 | Cc1c(C2(c3ccc(C(F)(F)F)nc3)CC2)c[nH]c1C(=O)NC(C)c1cc(C(N)=O)[nH]n1 (stereo in doubt; form 1) | 6.77 | 6.85 | – | – | F [6]: 18%; pEC50 [7]: 7.34
21 | Cc1c(C2(c3ccc(C(F)(F)F)nc3)CC2)c[nH]c1C(=O)NC(C)c1c[nH]cn1 (stereo in doubt; form 1) | – | – | 4.37 | – | TDI [8]: Active
22 | Cc1c(C2(c3ccc(C(F)(F)F)c(C#N)c3)CC2)c[nH]c1C(=O)NC(C)c1nc[nH]n1 (stereo in doubt; form 1) [listing 1 of 2 here] | – | – | – | – | inhibition (INH) [9]: Not Active; Activity [10]: Non-Toxic; Activity [11]: Non-Toxic; Activity [12]: Non-Toxic; inhibition (INH) [13]: Not Active; inhibition (INH) [14]: Not Active
23 | Cc1c(C2(c3ccc(C(F)(F)F)c(C#N)c3)CC2)c[nH]c1C(=O)NC(C)c1nc[nH]n1 (stereo in doubt; form 1) [listing 2 of 2 here] | – | – | – | – | Activity [15]: Active
